Measured values taken from patent US9255132B2, “Angiopoietin derived peptides” (Compugen Ltd., priority 2008, dated 2016).

What was measured:
[1] = tested on: avian chorioallantoic membrane (CAM); assay type: in vivo, Leghorn fertilized eggs; details: fumagillin 5 μg/CAM; 48 h
Description: CGEN-G6 [SEQ ID NO: 6], CGEN-F9 [SEQ ID NO: 7], CGEN-F12 [SEQ ID NO: 8], CGEN-C6 [SEQ ID NO: 9], CGEN-A11 [SEQ ID NO: 10], and CGEN-G2 [SEQ ID NO: 11], were analyzed for their ability to affect angiogenesis using the in ovo avian chorioallantoic membrane (CAM) model of angiogenesis, which is widely used as a model to examine compounds affecting angiogenesis (Richardson and Singh 2003, Curr Drug Targets Cardiovasc Haematol Disord., 3(2):155-85). Two positive controls were used: fumagillin as a general anti-angiogenic compound, and Tie2 neutralizing antibody as anti-angiogenic inhibitor of the Ang/Tie2 pathway. Leghorn fertilized eggs were incubated for 4 days at 37° C., when a window was opened on the egg's shell, exposing the CAM. Two different doses of peptides (0.5 and 5 nmol/CAM), Tie-2 neutralizing antibody (R&D Systems, Cat#AF313, 10 μg/ml; 0.4 μg/CAM) or fumagillin (Tocris Bioscience, Cat #1768; 5 μg/CAM) were applied in a 40 μl volume inside an area of 1 cm^2 (restricted by a plastic ring) of the CAM on day 9 of embryo development. The appropriate vehicle controls were also tested. Forty-eight hours after treatment and subsequent incubation at 37° C., CAMs were fixed in situ, excised from the eggs, placed on slides and left to air-dry. Pictures were taken through a stereoscope equipped with a digital camera and the total length of the vessels was measured using image analysis software (NIH Image). For each group a total of 17-24 eggs from three different experiments were used. Data are presented as means±SEM and expressed as % of vehicle control. Statistical analysis (ANOVA followed by Dunnett's post-hoc test) was performed using Graph Pad.
FIG. 6 depict results obtained on vessel length with peptides CGEN-G6 [SEQ ID NO: 6], CGEN-F9 [SEQ ID NO: 7], CGEN-F12 [SEQ ID NO: 8], CGEN-C6 [SEQ ID NO: 9], CGEN-A11 [SEQ ID NO: 10], and CGEN-G2 [SEQ ID NO: 11], compared to Tie2 neutralizing antibody (Ab) and the anti-angiogenic compound fumagillin. Neutralizing Tie2 Ab blocked vessel length by 36%, while the angiogenesis inhibitor fumagillin blocked vessel length by 32%.

[2] = tested on: co-culture of early passage human endothelial cells with early passage human interstitial cells; test: AngioKit in vitro angiogenesis, total tubule length; assay type: cell-based; details: 14 days, data not shown
[3] = tested on: oxygen-induced retinopathy (OIR); test: Rodent model of oxygen-induced retinopathy (OIR); assay type: in vivo, Sprague Dawley rats
Text: In order to assess the in viva efficacy of CGEN-A 11 [SEQ ID NO: 10] in a disease model of angiogenesis, a rodent model of oxygen-induced retinopathy (OIR) was used. Sprague Dawley rats were raised from birth through day PI4 in a variable oxygen atmosphere consisting of 24-hour alternating cycles of 50% and 10% oxygen. Rats were predisposed to pathological retinal angiogenesis as a result of oxygen treatment. Upon removal from the oxygen exposure chamber on day P14, rats received intravitreal injections of CGEN-A11 [SEQ ID NO: 10] in one of two doses: 15 μg/ml (low) or 75 μg/ml (high), 100 μg/ml recombinant rat Tie-2/Fc (R&D Systems, 3874-T2) or 100 μg/ml anti-VEGFR2 (Sigma, V1014) as positive controls, a combination of CGEN-A11 [SEQ ID NO: 10] at 30 μg/ml and anti-VEGFR2 (100 μg/ml), or vehicle (PBS) at a volume of 5 μl. An additional similar intravitreal administration took place 3 days later, on day P17. All pups were sacrificed on day P20. Both normal, intra-retinal vascular growth and abnormal, pre-retinal neovascular growth were assessed at six days post-exposure (P20) in ADPase-stained retinal flat-mounts, using widely published methods (e.g. Penn J S et al., 1991, Invest Ophthalmol Vis Sci. 32(4):1147; MicLeod D S et al., 1987, Microvasc Res. 33:257-269). All assessments were performed by a single, highly trained observer, who was blinded to treatment group. Areas of normal and abnormal vascular growth were measured via computer-assisted image analysis using high-resolution digital images of the stained retinal flat-mounts. The data were subjected to analysis of variance to determine statistical significance and a Dunnett's post hoc test to identify how the various treatment groups compared.
Data are depicted using percent total retinal area vascularized. Sample sizes (10, 11 or 12) are indicated on each bar. […] These differences yielded statistical significance, both at p<0.0001. Statistical significance was calculated using area (mm^2) measurements.
Data are depicted as area vascularized (mm^2). Sample sizes (10, 11 or 12) are indicated on each bar.

CO[C@@H]1[C@H](OC(=O)/C=C/C=C/C=C/C=C/C(=O)O)CC[C@]2(CO2)[C@H]1[C@@]1(C)O[C@@H]1CC=C(C)C [fumagillin, reference compound]
inhibition of vessel length [1]: 32%

Cc1ccc(C(=O)Nc2ccc(S(=O)(=O)O)c3cc(S(=O)(=O)O)cc(S(=O)(=O)O)c23)cc1NC(=O)c1cccc(NC(=O)Nc2cccc(C(=O)Nc3cc(C(=O)Nc4ccc(S(=O)(=O)O)c5cc(S(=O)(=O)O)cc(S(=O)(=O)O)c45)ccc3C)c2)c1 [suramin]
reduction of tubule length ([2]; suramin 20 μM): 50%

VEGF
induction of tubule length ([2]; VEGF 2 ng/mL, pro-angiogenic control): 130%

B1: Tie-2/Fc: recombinant rat Tie-2/Fc (R&D Systems, 3874-T2), positive control (protein)
chain: AMDLILINSLPLVSDAETSLTCIASGWRPHEPITIGRDFEALMNQHQDPLEVTQDVTREWAKKVVWKREKASKINGAYFCEGRVRGEAIRIRTMKMRQQASFLPATLTMTVDKGDNVNISFKKVLIKEEDAVIYKNGSFIHSVPRHEVPDILEVHLPHAQPQDAGVYSARYIGGNLFTSAFTRLIVRRCEAQKWGPECNHLCTACMNNGVCHEDTGECICPPGFMGRTCEKACELHTFGRTCKERCSGQEGCKSYVFCLPDPYGCSCATGWKGLQCNEACHPGFYGPDCKLRCSCNNGEMCDRFQGCLCSPGWQGLQCEREGIQRMTPKIVDLPDHIEVNSGKFNPICKASGWPLPTNEEMTLVKPDGTVLHPKDFNHTDHFSVAIFTIHRILPPDSGVWVCSVNTVAGMVEKPFNISVKVLPKPLNAPNVIDTGHNFAVINISSEPYFGDGPIKSKKLLYKPVNHYEAWQHIQVTNEIVTLNYLEPRTEYELCVQLVRRGEGGEGHPGPVRRFTTASIGLPPPRGLNLLPKSQTTLNLTWQPIFPSSEDDFYVEVERRSVQKSDQQNIKVPGNLTSVLLNNLHPREQYVVRARVNTKAQGEWSEDLTAWTLSDILPPQPENIKISNITHSSAVISWTILDGYSISSITIRYKVQGKNEDQHVDVKIKNATITQYQLKGLEPETAYQVDIFAENNIGSSNPAFSHELVTLPESQAPADLGGGK
modifications: left off: a dimerising Fc or GST
notes: recombinant rat Tie-2/Fc (R&D Systems, 3874-T2), positive control
inhibition of pre-retinal neovascular growth (pathological angiogenesis) ([3]; Tie-2/Fc intravitreal 100 μg/ml, P20, p=0.0436): 61.9% | intra-retinal normal vascular growth compared to PBS control ([3]; intravitreal 100 μg/ml, 5 μl, P14 and P17, assessed P20, p<0.0001): statistically significant increase
